In patent US20250255867A1 (Kadmon Corporation, LLC, priority 2022, published 2025):
Values joined by “and” are separate entries in the source; they are usually repeats but may differ in a detail not shown here. Equal values may be shown once.

Tests used:
Type in all cases: in vivo, human
[1] = test system: patients with cGVHD; experiment: Example 1: Global Severity Rating and participant self-reported symptom activity; conditions: Cohort 3 400 mg QD
Protocol: Maximal Improvement from Baseline in Global Severity Rating (GSR) by Clinician-reported cGVHD Assessment. The GSR assessment was performed by asking the participants to rate their disease severity of cGVHD symptoms on a 0 to 10-point numeric rating scale, where score 0 indicated ‘not at all severe cGVHD symptoms’ and score 10 indicated ‘most severe cGVHD symptoms possible’. The response was defined using the scores from 9 organs: skin, eyes, mouth, esophagus, upper gastrointestinal (GI) track, lower GI tract, liver, lungs, and joints and fascia plus GSR. End of treatment (EOT) visit was performed within 3 days after the participant's last dose of study drug. Baseline value was defined as valid and last non-missing value obtained within 28 days prior to participant receiving first study medication. […] Analysis was performed on mITT population.
Number of Participants With Maximal Improvement From Baseline in Symptom Activity by cGVHD Activity Assessment Participant Self-Report. cGVHD symptom severity was self-reported by participants. Participants were asked to rate their disease symptom severity over the last week on the following questions: skin itching at its worst, moth dryness at its worst, mouth pain at its worst, mouth sensitivity at its worst, main compliant on eyes, symptom severity on eyes. The severity rating was done on a 0 to 10-point numeric rating scare, where score 0 indicated ‘not at all severe cGVHD symptoms’ and score 10 indicated ‘most severe cGVHD symptoms possible’. EOT visit was performed within 3 days after the participant's last dose of study drug. Baseline value was defined as valid and last non-missing value obtained within 28 days prior to participant receiving first study medication. […] Analysis was performed on mITT population.

[2] = test system: subjects with cGVHD; experiment: Example 2: 7-day LSS summary score; conditions: for Clinically significant improvement from baseline (LSS), Overall: decrease ≥7 points in LSS score, mITT population
Protocol: (§1) All responses were assessed by the study site investigators.

[3] = test system: subjects with BOS; experiment: Example 3: Lee Symptom Scale lung score in BOS
From the text: Following the methodology used for the LSS, we identified a 10-point difference (half a standard deviation from baseline scores) as being a clinically meaningful organ-specific change in this dataset. (Lee S et al. Development and validation of a scale to measure symptoms of chronic graft-versus-host disease. Biol Blood Marrow Transplant 2002; 8 (8): 444-452; Teh C et al. Reliability and Validity of the Modified 7-Day Lee Chronic Graft-versus-Host Disease Symptom Scale. Biol Blood Marrow Transplant 2020; 26 (3): 562-567.) Forty subjects (68%) experienced a clinically meaningful improvement (10-point reduction) in the LSS lung score.

[4] = test system: subjects with cGVHD; experiment: Example 2: failure-free survival, overall survival, NRM, relapse; conditions: for FFS at 6 mo (95% CI) / FFS at 12 mo (95% CI): mITT population
Protocol: as §1

[5] = test system: subjects with cGVHD; experiment: Example 2: corticosteroid and other immunosuppressant reduction/discontinuation
Protocol: as §1

[6] = 200 mg daily (n = 66), mITT population
[7] = 200 mg twice daily (n = 66), mITT population
[8] = Total (N = 132), mITT population

CC(C)NC(=O)COc1cccc(-c2nc(Nc3ccc4[nH]ncc4c3)c3ccccc3n2)c1 [Belumosudil, 2-{3-[4-(1H-indazol-5-ylamino)-2-quinazolinyl]phenoxy}-N-(propan-2-yl) acetamide]
Maximal improvement in self-reported symptom activity of 0 [1]: 0 participants
Maximal improvement in self-reported symptom activity of 1 [1]: 1 participants
Maximal improvement in self-reported symptom activity of 2 [1]: 2 participants
Maximal improvement in self-reported symptom activity of 4 [1]: 0 participants
Maximal improvement in self-reported symptom activity of −1 [1]: 2 participants
Maximal improvement in self-reported symptom activity of −2 [1]: 2 participants
Maximal improvement in self-reported symptom activity of −3 [1]: 2 participants
Maximal improvement in self-reported symptom activity of −4 [1]: 1 participants
Maximal improvement in self-reported symptom activity of −5 [1]: 2 participants
Maximal improvement in self-reported symptom activity of −6 [1]: 4 participants
Maximal improvement in self-reported symptom activity of −7 [1]: 0 participants
Maximal improvement in self-reported symptom activity of −8 [1]: 1 participants
Clinically meaningful improvement in 7-day LSS summary score ([2]; 200 mg daily, nonresponders): 29%
Clinically meaningful improvement in 7-day LSS summary score ([2]; 200 mg daily, responders): 69%
Clinically meaningful improvement in 7-day LSS summary score ([2]; 200 mg twice daily, nonresponders): 33%
Clinically meaningful improvement in 7-day LSS summary score ([2]; 200 mg twice daily, responders): 71%
Clinically significant improvement from baseline (LSS), Overall ([2]; 200 mg daily (n = 66)): 39 (59) n (%)
Clinically significant improvement from baseline (LSS), Overall ([2]; 200 mg twice daily (n = 66)): 41 (62) n (%)
Subjects with clinically meaningful improvement (10-point reduction) in LSS lung score ([3]; 59 subjects): 68%
Clinically meaningful improvement in LSS lung score ([3]; baseline NIH lung score 1): 66%
Clinically meaningful improvement in LSS lung score ([3]; baseline NIH lung score 2): 61%
Clinically meaningful improvement in LSS lung score ([3]; baseline NIH lung score 3): 100%
Clinically meaningful improvement in LSS lung score ([3]; non-responders): 68% and 67.5%
Clinically meaningful improvement in LSS lung score ([3]; subjects with 35% best improvement in % FEV1): 61%
Clinically meaningful improvement in LSS lung score ([3]; subjects with <5% best improvement in % FEV1): 69%
FFS at 6 mo (95% CI) ([4]; 200 mg daily (n = 66)): 73 (61-83) %
FFS at 12 mo (95% CI) ([4]; 200 mg daily (n = 66)): 57 (44-68) %
FFS at 6 mo (95% CI) ([4]; 200 mg twice daily (n = 66)): 76 (63-84) %
FFS at 12 mo (95% CI) ([4]; 200 mg twice daily (n = 66)): 56 (43-67) %
Overall FFS rate at 12 months ([4]; 95% CI, 47-64): 56%
Overall FFS rate at 6 months ([4]; 95% CI, 66-81): 75%
2-year OS rate ([4]; 95% CI, 82-93): 89%
Failure event: initiation of a new systemic cGVHD therapy ([4]; in vivo): 38%
Relapse rate ([4]; in vivo): 3%
Mean change in CS dose from baseline, Nonresponder ([5]; 200 mg daily): −22%
Mean change in CS dose from baseline, Responder ([5]; 200 mg daily): −49%
CS discontinuation [5, 6]: 13 (20) n (%)
Mean change in CS dose from baseline, Overall [5, 6]: −43%
Median CS reduction from baseline to greatest reduction [5, 6]: 38%
Proportion with CS reduction [5, 6]: 42 (64) n (%)
Mean change in CS dose from baseline, Nonresponder ([5]; 200 mg twice daily): −10%
Mean change in CS dose from baseline, Responder ([5]; 200 mg twice daily): −58%
Mean change in CS dose from baseline, Overall [5, 7]: −48%
Median CS reduction from baseline to greatest reduction [5, 7]: 50%
Mean change in CS dose from baseline, Nonresponder ([5]; Total): −16%
Mean change in CS dose from baseline, Responder ([5]; Total): −54%
Mean change in CS dose from baseline, Overall [5, 8]: −45%
Median CS reduction from baseline to greatest reduction [5, 8]: 50%
Subjects who discontinued CNI therapy ([5]; in vivo): 22%
Subjects who discontinued mycophenolate mofetil ([5]; in vivo): 21%
Subjects who discontinued sirolimus ([5]; in vivo): 20%
Mean corticosteroid dose reduction ([5]; mITT): 45%
Mean corticosteroid dose reduction ([5]; responders): 54%
